From patent US20230077362A1 (CORTEVA AGRISCIENCE LLC, priority 2019, published 2023)
Like-named read-outs stand apart in the source and are kept apart here.

Key:
[1] = system: Cabbage Looper (Trichoplusia ni) ("CL"), second instar larvae; assay: Bioassay on cabbage looper (CL), 128-well diet tray assay; assay type: in vivo; conditions: for CL rating: C = not tested, D = no activity noticed
Summary of the method: (§1)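 Sealed trays, 25° C., 14:10 light:dark, 5–7 d. Per-well % mortality recorded, mean of eight wells reported.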

[2] = system: Beet Armyworm (Spodoptera exigua) ("BAW"), second instar larvae; assay: Bioassay on beet armyworm (BAW), 128-well diet tray assay; assay type: in vivo; conditions: for pest or weed control at 50 µg/cm2: Spodoptera exigua; for BAW rating: C = not tested, D = no activity noticed
Summary of the method: as §1

[3] = Trichoplusia ni, read-out: CL (Biological Results, rating)
[4] = read-out: BAW (Biological Results, rating)
[5] = Trichoplusia ni, read-out: CL rating

Molecule	pest or weed control at 50 µg/cm2 [1, 3] [%]	pest or weed control at 50 µg/cm2 [2, 4] [%]	pest or weed control at 50 µg/cm2 [1, 5] [%]	pest or weed control at 50 µg/cm2 ([2]; read-out: BAW rating) [%]	other results
CC(=O)N(C)c1ccc(C(C)C)c(N2C(=O)CS/C2=N\C(=O)Nc2ccc(-c3ncn(-c4ccc(OC(F)(F)F)cc4)n3)cc2C)c1 [Compound J199, (Z)-N-(4-Isopropyl-3-(2-(((2-methyl-4-(1-(4-(trifluoromethoxy)phenyl)-1H-1,2,4-triazol-3-yl)phenyl)carbamoyl)imino)-4-oxothiazolidin-3-yl)phenyl)-N-methylacetamide]	50 to 100	50 to 100			
Cc1ccc(COCC(F)(F)F)c(N2C(=O)CS/C2=N\C(=O)Nc2ccc(-c3nnn(-c4ccc(OC(F)(F)F)cc4)n3)cc2)c1 [Compound J767, (Z)-1-(3-(5-Methyl-2-((2,2,2-trifluoroethoxy)methyl)phenyl)-4-oxothiazolidin-2-ylidene)-3-(4-(2-(4-(trifluoromethoxy)phenyl)-2H-tetrazol-5-yl)phenyl)urea]			50 to 100	50 to 100	
Cc1ccc(C(C)C)c(N2C(=O)CS/C2=N\C(=O)Nc2ccc(-n3cnc(-c4ccc(OC(F)(F)F)cc4)c3)cc2Cl)c1 [Compound J792, (Z)-1-(2-Chloro-4-(4-(4-(trifluoromethoxy)phenyl)-1H-imidazol-1-yl)phenyl)-3-(3-(2-isopropyl-5-methylphenyl)-4-oxothiazolidin-2-ylidene)urea]					mortality at 50 µg/cm2 ([1]; Trichoplusia ni, Table ABC, species CL, 128-well diet tray assay, second instar larvae, read-out: CL rating (% control or mortality class)): 50 to 100%; BAW rating (% control or mortality class) ([2]; Table ABC, species BAW, 128-well diet tray assay, second instar larvae): A (50-100)
Cc1ccc(COCC(F)F)c(N2C(=O)CS/C2=N\C(=O)Nc2ccc(-c3ncn(-c4ccc(OC(F)(F)F)cc4)n3)cc2F)c1 [Compound J401]			50 to 100	50 to 100	
Cc1ccc(C(C)C)c(N2C(=O)CS/C2=N\C(=O)Nc2ccc(-c3ncn(-c4ccc(OC(F)(F)F)cc4)n3)cc2O)c1 [Compound J175, (Z)-1-(2-hydroxy-4-(1-(4-(trifluoromethoxy)phenyl)-1H-1,2,4-triazol-3-yl)phenyl)-3-(3-(2-isopropyl-5-methylphenyl)-4-oxothiazolidin-2-ylidene)urea]	50 to 100	50 to 100			
Cc1cc(-c2cn(-c3ccc(S(F)(F)(F)(F)F)cc3)cn2)ccc1NC(=O)/N=C1\SCC(=O)N1c1cc(N(C)C)c(F)cc1C(C)C [Compound J619, (Z)-1-(3-(5-(Dimethylamino)-4-fluoro-2-isopropylphenyl)-4-oxothiazolidin-2-ylidene)-3-(2-methyl-4-(1-(4-(pentafluoro-λ^6-sulfaneyl)phenyl)-1H-imidazol-4-yl)phenyl)urea]			50 to 100	50 to 100	
Cc1ccc(COCC(F)(F)F)c(N2C(=O)CS/C2=N\C(=O)Nc2ccc(-c3ncn(-c4ccc(C(F)(F)F)cn4)n3)cc2C(F)(F)F)c1 [Compound J304, (Z)-1-(3-(5-Methyl-2-((2,2,2-trifluoroethoxy)methyl)phenyl)-4-oxothiazolidin-2-ylidene)-3-(2-(trifluoromethyl)-4-(1-(5-(trifluoromethyl)pyridin-2-yl)-1H-1,2,4-triazol-3-yl)phenyl)urea]	50 to 100	50 to 100			
Cc1ccc(COCC(F)(F)F)c(N2C(=O)CS/C2=N\C(=O)Nc2ccc(-c3ncn(-c4ccc(F)cc4)n3)cc2F)c1 [Compound J782, (Z)-1-(2-Fluoro-4-(1-(4-fluorophenyl)-1H-1,2,4-triazol-3-yl)phenyl)-3-(3-(5-methyl-2-((2,2,2-trifluoroethoxy)methyl)phenyl)-4-oxothiazolidin-2-ylidene)urea]			50 to 100	50 to 100	
O=C(/N=C1\SCC(=O)N1c1ccccc1COCC(F)(F)F)Nc1ccc(-n2cnc(-c3ccc(OC(F)(F)F)cc3)n2)cc1Cl [Compound J732, (Z)-1-(2-Chloro-4-(3-(4-(trifluoromethoxy)phenyl)-1H-1,2,4-triazol-1-yl)phenyl)-3-(4-oxo-3-(2-((2,2,2-trifluoroethoxy)methyl)phenyl)thiazolidin-2-ylidene)urea]			50 to 100	50 to 100	
CC(C)c1ccc(N(C)C)cc1N1C(=O)CS/C1=N\C(=O)Nc1ccc(-c2ncn(-c3ccc(S(=O)(=O)C(F)(F)F)cc3)n2)cc1C#N [Compound J414, (Z)-1-(2-Cyano-4-(1-(4-((trifluoromethyl)sulfonyl)phenyl)-1H-1,2,4-triazol-3-yl)phenyl)-3-(3-(5-(dimethylamino)-2-isopropylphenyl)-4-oxothiazolidin-2-ylidene)urea]			50 to 100	50 to 100	
Cc1ccc(COCC(F)(F)F)c(N2C(=O)CS/C2=N\C(=O)Nc2ccc(-c3ncn(-c4cccc(OC(F)(F)F)c4)n3)cc2F)c1 [Compound J705]					CL rating ([1]; Table ABC, species CL): A (50-100); BAW rating ([2]; Table ABC, species BAW): A (50-100)
CCCc1ccc(C)cc1N1C(=O)CS/C1=N\C(=O)Nc1ccc(-c2ncn(-c3ccc(S(F)(F)(F)(F)F)cc3)n2)cc1F [Compound J498]					CL rating ([1]; Table ABC, species CL): A (50-100); BAW rating ([2]; Table ABC, species BAW): A (50-100)
(Z)-1-(3-(5-ethoxy-2-((2,2,2-trifluoroethoxy)methyl)phenyl)-4-oxothiazolidin-2-ylidene)-3-(2-methyl-4-(1-(4-(trifluoromethoxy)phenyl))-1H-1,2,4-triazol-3-yl)phenyl)urea [Compound J575]					CL rating ([1]; Table ABC, species CL): A (50-100); BAW rating ([2]; Table ABC, species BAW): A (50-100)
CCNc1ccc(C(C)C)c(N2C(=O)CS/C2=N\C(=O)Nc2ccc(-c3ncn(-c4ccc(OC(F)(F)F)cc4)n3)cc2CC)c1 [Compound J158, (Z)-1-(2-Ethyl-4-(1-(4-(trifluoromethoxy)phenyl)-1H-1,2,4-triazol-3-yl)phenyl)-3-(3-(5-(ethylamino)-2-isopropylphenyl)-4-oxothiazolidin-2-ylidene)urea]	50 to 100	50 to 100			
Cc1ccc(COCC(Cl)(Cl)Cl)c(N2C(=O)CS/C2=N\C(=O)Nc2ccc(-c3ncn(-c4ccc(OC(F)(F)F)cc4)n3)cc2F)c1 [Compound J452]					CL rating ([1]; Table ABC, species CL): A (50-100); BAW rating ([2]; Table ABC, species BAW): A (50-100)
(Z)-1-(2-Fluoro-4-(1-(4-(trifluoromethoxy)phenyl)-1H-1,2,4-triazol-3-yl)phenyl)-3-(3-(5-methyl-2-((thiophen-3-ylmethoxy)methyl)phenyl)-4-oxothiazolidin-2-ylidene)urea [Compound J623]					CL rating ([1]; Table ABC, species CL): A (50-100); BAW rating ([2]; Table ABC, species BAW): A (50-100)
CCOC(C)c1ccc(C)cc1N1C(=O)CS/C1=N\C(=O)Nc1ccc(-c2ncn(-c3ccc(OC(F)(F)F)cc3)n2)cc1F (stereo not shown) [Compound J124, (Z)-1-(3-(2-(1-Ethoxyethyl)-5-methylphenyl)-4-oxothiazolidin-2-ylidene)-3-(2-fluoro-4-(1-(4-(trifluoromethoxy)phenyl)-1H-1,2,4-triazol-3-yl)phenyl)urea]	50 to 100	50 to 100			
COC(C)c1cc(C)ccc1N1C(=O)CS/C1=N\C(=O)Nc1ccc(-c2ncn(-c3ccc(C(F)(F)F)cn3)n2)cc1F (stereo not shown) [Compound J300, (Z)-1-(2-Fluoro-4-(1-(5-(trifluoromethyl)pyridin-2-yl)-1H-1,2,4-triazol-3-yl)phenyl)-3-(3-(2-(1-methoxyethyl)-4-methylphenyl)-4-oxothiazolidin-2-ylidene)urea]	50 to 100	50 to 100			
Cc1ccc(COCC(F)(F)F)c(N2C(=O)CS/C2=N\C(=O)Nc2ccc(-c3noc(-c4ccc(OC(F)(F)F)cc4)n3)cc2F)c1 [Compound J770, (Z)-1-(2-Fluoro-4-(5-(4-(trifluoromethoxy)phenyl)-1,2,4-oxadiazol-3-yl)phenyl)-3-(3-(5-methyl-2-((2,2,2-trifluoroethoxy)methyl)phenyl)-4-oxothiazolidin-2-ylidene)urea]			50 to 100	50 to 100	
N#CC(CNC(=O)/N=C1\SCC(=O)N1c1cc(Cl)ccc1C(F)(F)F)c1ccc(-c2ncn(-c3ccc(OC(F)(F)F)cc3)n2)cc1 (stereo not shown) [Compound H8, (Z)-1-(3-(5-chloro-2-(trifluoromethyl)phenyl)-4-oxothiazolidin-2-ylidene)-3-(2-cyano-2-(4-(1-(4-(trifluoromethoxy)phenyl)-1H-1,2,4-triazol-3-yl)phenyl)ethyl)urea]	50 to 100	50 to 100			
CCCc1ccc(N(C)C)cc1N1C(=O)CS/C1=N\C(=O)Nc1ccc(-n2cnc(-c3ccc(OC(F)(F)F)cc3)n2)cc1 [Compound J409, (Z)-1-(3-(5-(Dimethylamino)-2-propylphenyl)-4-oxothiazolidin-2-ylidene)-3-(4-(3-(4-(trifluoromethoxy)phenyl)-1H-1,2,4-triazol-1-yl)phenyl)urea]			50 to 100	50 to 100	
CC(C)c1ccc(C#N)cc1N1C(=O)CS/C1=N\C(=O)Nc1ccc(-n2cnc(-c3ccc(OC(F)(F)F)cc3)n2)cc1 [Compound J407, (Z)-1-(3-(5-Cyano-2-isopropylphenyl)-4-oxothiazolidin-2-ylidene)-3-(4-(3-(4-(trifluoromethoxy)phenyl)-1H-1,2,4-triazol-1-yl)phenyl)urea]			50 to 100	50 to 100	
COC(c1ccc(C)cc1N1C(=O)CS/C1=N\C(=O)Nc1ccc(-n2cnc(-c3ccc(OC(F)(F)F)cc3)n2)cc1Cl)C(F)(F)F (stereo not shown) [Compound J729, (Z)-1-(2-Chloro-4-(3-(4-(trifluoromethoxy)phenyl)-1H-1,2,4-triazol-1-yl)phenyl)-3-(3-(5-methyl-2-(2,2,2-trifluoro-1-methoxyethyl)phenyl)-4-oxothiazolidin-2-ylidene)urea]			50 to 100	50 to 100	
